Reference: article PMC7071032, “In Vitro Inhibition of Hsp90 Protein by Benzothiazoloquinazolinequinones Is Enhanced in The Presence of Ascorbate. A Preliminary In Vivo Antiproliferative Study” (Molecules, 2020)
Where two headings read alike, the source gives them in different places.

Assays:
[1] = test system: T24 (bladder) cells; test: MTT reduction assay, T24 cells; format: cell-based; conditions: Homo sapiens, T-24, 48 h incubation, read-out: IC50 ± SEM T24
Procedure: (§1) As positive control, two well-known anticancer drugs, namely TAM and 5-FU, were also tested on these cell lines. […] Regarding 5-FU, it is a broad-spectrum chemotherapeutic drug used to treat a variety of malignancies. Particularly, it has a long history of use against bladder tumors.
(§2) Cell culture conditions were the same as reported elsewhere. Briefly, cell lines were kept in DMEM containing 10% fetal calf serum. In addition, 100 U/mL of penicillin and 100 µg/mL streptomycin from Gibco (Grand Island, NY, USA) were further added. Cell cultures were kept at 37 °C under an atmosphere of 95% air/5% CO2 and 100% humidity. Sodium L-ascorbate, menadione (vitamin K3), TAM, and 5-FU were purchased from Sigma (St. Louis, MO, USA).
(§3) The cytotoxicity of the quinones was assessed by following the reduction of MTT (3-(4,5-dimethylthiazol-2-yl)-2,5-diphenyltetrazolium bromide) to formazan blue and the capability of cancer cells to proliferate, namely a clonogenic assay.
(§4) Cells were seeded into 96-well plates at a density of 10,000 cells/well for 24 h and then incubated for 48 h with or without the quinone derivatives. […] The IC50 values were determined using the GraphPad Prism software (San Diego, CA, USA). Further incubation procedures and optical density reading of colored solutions were performed according to Benites et al..

[2] = test system: DU-145 (prostate) cells; test: MTT reduction assay, DU-145 cells; format: cell-based; conditions: Homo sapiens, DU-145, 48 h, read-out: IC50 ± SEM DU-145
Procedure: as §1, §2, §3, §4

[3] = test system: MCF-7 (breast) cells; test: MTT reduction assay, MCF-7 cells; format: cell-based; conditions: Homo sapiens, MCF7, 48 h incubation, read-out: IC50 ± SEM MCF-7
Procedure: as §1, §2, §3, §4

[4] = test system: non-tumor fibroblasts AG 1523; test: MTT reduction assay, non-tumor fibroblasts; format: cell-based; conditions: Homo sapiens, AG1523, 48 h incubation, read-out: IC50 ± SEM AG 1523
Procedure: as §1, §2, §3, §4

[5] = test system: panel of cancer cells (T24, DU-145, MCF-7); test: MTT reduction assay, panel of cancer cells (means, ranges, selectivity index); format: cell-based, human; conditions: for MSI: mean selective index: IC50 values of fibroblasts (AG 1523)/IC50 values of tumor cells (T24, DU-145, MCF-7); for IC50: Homo sapiens
Procedure: as §1
Such a selective index was calculated as the ratio between IC50 values of healthy cells/IC50 values in cancer cells.
as §4

[6] = test system: T24 cells; test: Clonogenic assay; format: cell-based, human; conditions: for cell growth compared to control conditions (100%), in brackets / number of colony forming units (CFUs): T24 cells; for number of colony forming units (CFUs): 24 h treatment, 10 days growth
Procedure: Indeed, at a dose of 0.25 µM, it decreased from 195 to 72 the number of CFUs. Otherwise, it inhibits the proliferation of T24 cells by 63% as compared to the control untreated cells. […] The percentages of the observed cell growth compared to control conditions (100%) are indicated in brackets. […] Cells were allowed to adhere overnight, and then treated with quinones for 24 h. Afterward, they were washed with warm PBS, given fresh medium, and allowed to grow for 10 days. Clonogenic survival was determined by fixing and staining colonies using crystal violet and further counting their number. The number of colonies calculated under control conditions was set as 100%.

[7] = test system: T24 (bladder) cells; set-up: method as in doi:10.1016/j.tetlet.2015.07.034; conditions: MTT, data from Valderrama et al. ref 16, read-out: IC50 ± SEM T24; cited from earlier work
[8] = test system: DU-145 (prostate) cells; set-up: method as in doi:10.1016/j.tetlet.2015.07.034; conditions: read-out: IC50 ± SEM DU-145, MTT, data from Valderrama et al. ref 16; cited from earlier work
[9] = test system: MCF-7 (breast) cells; set-up: method as in doi:10.1016/j.tetlet.2015.07.034; conditions: MTT, data from Valderrama et al. ref 16, read-out: IC50 ± SEM MCF-7; cited from earlier work
[10] = test system: Hsp90; test: Immunoblot of Hsp90 protein integrity in T24 cells; format: cell-based, human; conditions: 5 µM quinone plus 1 mM ascorbate, 4 h
Procedure: Nevertheless, when incubation was done in the presence of 1 mM ascorbate (vitamin C) plus quinones (including menadione), a new peptide fragment of about 70 kD was detected by the antibody against Hsp90.
Figure 1 Effects of selected quinones of Hsp90 (A) and poly(ADPribose)polymerase (PARP) (B) protein integrity in T24 cells. Cancer cells were incubated for 4 h with 5 µM menadione (K3), 15, 16, 19, or 20 either in the absence or in the presence of 1 mM ascorbate (Asc). Ctl represents control untreated cells. * p < 0.05 as compared to control conditions.
Cancer cells were incubated for 4 h in the absence and in the presence of compounds. Afterward, cells were washed twice with ice-cold PBS and then resuspended in RIPA lysis buffer supplemented with 1% protease inhibitor cocktail (Sigma–Aldrich, St. Louis, MO, USA) and 3% phosphatase inhibitor cocktail (Calbiochem, Darmstadt, Germany). Treatment of samples and electrophoresis conditions were conducted as previously reported. Mouse monoclonal primary antibodies against hsp90α/β C-terminus (F8), and against β-actin (clone AC-15), were purchased from Santa Cruz Biotechnology (Santa Cruz, CA, USA) and from Abcam (Cambridge, UK), respectively. Rabbit polyclonal antibodies against PARP were purchased from BD Biosciences (San Diego, CA, USA). […]

[11] = test system: poly(ADPribose)polymerase (PARP); test: Immunoblot of PARP protein integrity in T24 cells; format: cell-based, human; conditions: 5 µM, 4 h, regardless of the presence of ascorbate (1 mM)
Procedure: Figure 1 Effects of selected quinones of Hsp90 (A) and poly(ADPribose)polymerase (PARP) (B) protein integrity in T24 cells. […] Ctl represents control untreated cells. * p < 0.05 as compared to control conditions. […] This was the case regardless of the presence of ascorbate (1 mM). The obtained results make a potential role of apoptosis unlikely to be the underlying mechanism of cell impairment induced by quinones, including menadione. Indeed, PARP is a substrate of caspase-3, therefore, when an apoptosis process is triggered, it is expected that PARP protein will be cleaved yielding a second protein band also recognized by the anti-PARP antibody. Cancer cells were incubated for 4 h in the absence and in the presence of compounds. Afterward, cells were washed twice with ice-cold PBS and then resuspended in RIPA lysis buffer supplemented with 1% protease inhibitor cocktail (Sigma–Aldrich, St. Louis, MO, USA) and 3% phosphatase inhibitor cocktail (Calbiochem, Darmstadt, Germany). Treatment of samples and electrophoresis conditions were conducted as previously reported. Mouse monoclonal primary antibodies against hsp90α/β C-terminus (F8), and against β-actin (clone AC-15), were purchased from Santa Cruz Biotechnology (Santa Cruz, CA, USA) and from Abcam (Cambridge, UK), respectively. Rabbit polyclonal antibodies against PARP were purchased from BD Biosciences (San Diego, CA, USA). […]

[12] = read-out: IC50 values on the panel of cancer cells (range over cell lines)
[13] = read-out: mean IC50 value calculated from the individual IC50 values of the three cancer cell lines

IC50 [1]	Structure (SMILES)	IC50 [4]	MSI: mean selective index [5]	IC50 [5, 12]	IC50 [5, 13]	cell growth compared to control conditions (100%), in brackets ([6]; 0.025 µM)	number of colony forming units (CFUs) ([6]; 0.025 µM)	cell growth compared to control conditions (100%), in brackets ([6]; 0.125 µM)	number of colony forming units (CFUs) ([6]; 0.125 µM)	cell growth compared to control conditions (100%), in brackets ([6]; 0.25 µM)	number of colony forming units (CFUs) ([6]; 0.25 µM)	cell growth compared to control conditions (100%), in brackets ([6]; 1.25 µM)	number of colony forming units (CFUs) ([6]; 1.25 µM)	cell growth compared to control conditions (100%), in brackets ([6]; 2.5 µM)	number of colony forming units (CFUs) ([6]; 2.5 µM)	cell growth compared to control conditions (100%), in brackets ([6]; 5.0 µM)	number of colony forming units (CFUs) ([6]; 5.0 µM)	IC50 [7]	IC50 [8]	IC50 [9]	also measured
6860 ± 330 nM	CCCCCC1(O)C2=C(N=C3Sc4cc(C)ccc4N31)C(=O)c1ccccc1C2=O (centres unmarked) [Compound 17]	7500 ± 690 nM	1.09																		IC50 [2]: 8460 ± 310 nM; IC50 [3]: 5260 ± 220 nM; melting point: 129 to 129.5 °C
1890 ± 150 nM	CCCC1(O)C2=C(N=C3Sc4cc(OC)ccc4N31)C(=O)c1ccccc1C2=O (centres unmarked) [Compound 20]	4990 ± 590 nM	3.17	110 to 1770 nM	1100 to 1610 nM	96%	204 ± 17 CFUs	100%	214 ± 25 CFUs	106%	225 ± 19 CFUs	55%	118 ± 22 CFUs	42%	89 ± 10 CFUs	22%	46 ± 7 CFUs				IC50 [2]: 1130 ± 50 nM; IC50 [3]: 1670 ± 120 nM
	COc1ccc2c(c1)SC1=NC3=C(C(=O)c4ccccc4C3=O)C(C)(O)N12 (centres unmarked) [Compound 19]	6400 ± 460 nM	3.97	110 to 1770 nM	1100 to 1610 nM	102%	195 ± 16 CFUs	96%	183 ± 21 CFUs	72%	138 ± 18 CFUs	36%	68 ± 12 CFUs	16%	30 ± 16 CFUs	18%	35 ± 11 CFUs	1320 ± 110 nM	790 ± 110 nM	2720 ± 180 nM	inhibition at 0.25 µM ([6]; Homo sapiens, T-24, clonogenic assay, 0.25 µM, read-out: inhibition of the proliferation of T24 cells as compared to control untreated cells): 28%
	CC1=CC(=O)c2ccccc2C1=O [menadione, reference compound]																				Hsp90 protein cleavage [10]: strong Hsp90 cleavage; PARP cleavage [11]: neither the quinone derivatives nor menadione induced a detectable PARP cleavage
	CCCC1(O)C2=C(N=C3Sc4cc(C)ccc4N31)C(=O)c1ccccc1C2=O (centres unmarked) [Compound 16]	3460 ± 80 nM	2.62	110 to 1770 nM	1100 to 1610 nM	101%	204 ± 19 CFUs	107%	216 ± 29 CFUs	94%	189 ± 12 CFUs	39%	79 ± 9 CFUs	29%	58 ± 12 CFUs	11%	23 ± 15 CFUs	1360 ± 150 nM	850 ± 100 nM	1770 ± 260 nM	
	CCCC1(O)C2=C(N=C3Sc4ccccc4N31)C(=O)c1ccccc1C2=O (centres unmarked) [Compound 12]	8820 ± 270 nM	1.28															4860 ± 500 nM	11600 ± 2050 nM	4250 ± 500 nM	
